Each compound was assayed against BRD4 (Homo sapiens (Human), UniProt O60885). Conditions: read-out: BRD4 IC50 (μM gmean).

Row | SMILES | IC50 [µM]
1 | COC(=O)N1c2ccc3c(nc(CCn4cccn4)n3C3CCC4(CC3)CNC4)c2CC[C@@H]1C [Example 109] | 1 to 1000
2 | COC(=O)N1c2ccc3c(nc(Cc4cccc(OC)c4)n3C3CC4(CNC4)C3)c2CC[C@@H]1C [Example 110] | 1 to 1000
3 | COC(=O)N1c2ccc3c(nc(Cc4ccccc4)n3[C@H]3CCC34CCNCC4)c2CC[C@@H]1C [Example 111, methyl (S)-2-benzyl-7-methyl-3-((S)-7-azaspiro[3.5]nonan-1-yl)-3,7,8,9-tetrahydro-6H-imidazo[4,5-f]quinoline-6-carboxylate] | 1 to 1000
4 | COC(=O)N1c2ccc3c(nc(Cc4ccccc4)n3[C@@H]3CCC34CCNCC4)c2CC[C@@H]1C [Example 112, methyl (S)-2-benzyl-7-methyl-3-((R)-7-azaspiro[3.5]nonan-1-yl)-3,7,8,9-tetrahydro-6H-imidazo[4,5-f]quinoline-6-carboxylate] | 1 to 1000
5 | COC(=O)N1c2ccc3c(nc(C[C@@H](C(=O)O)c4ccccc4)n3C)c2CC[C@@H]1C [Example 133, (2R)-3-[(7S)-6-(methoxycarbonyl)-3,7-dimethyl-3H,6H,7H,8H,9H-imidazo[4,5-f]quinolin-2-yl]-2-phenylpropanoic Acid] | 1 to 1000
6 | COC(=O)N1c2ccc3c(nc(C[C@H](C(=O)O)c4ccccc4)n3C)c2CC[C@@H]1C [Example 134, (2S)-3-[(7S)-6-(methoxycarbonyl)-3,7-dimethyl-3H,6H,7H,8H,9H-imidazo[4,5-f]quinolin-2-yl]-2-phenylpropanoic Acid] | 1 to 1000
7 | COC(=O)N1c2ccc3c(nc(C[C@H](C(=O)O)c4ccccc4)n3C)c2CC[C@@H]1C [Example 135, (S)-3-((S)-6-(methoxycarbonyl)-3,7-dimethyl-6,7,8,9-tetrahydro-3H-imidazo[4,5-f]quinolin-2-yl)-2-phenylpropanoic Acid] | 1 to 1000
8 | COC(=O)N1c2ccc3c(nc(C[C@@H](C(=O)O)c4ccccc4)n3C)c2CC[C@@H]1C [Example 136, (R)-3-((S)-6-(methoxycarbonyl)-3,7-dimethyl-6,7,8,9-tetrahydro-3H-imidazo[4,5-f]quinolin-2-yl)-2-phenylpropanoic Acid] | 1 to 1000
9 | COC(=O)N1c2ccc3c(nc(C[C@@H](C(=O)O)c4ccccc4)n3CCN(C)C)c2CC[C@@H]1C [Example 137, (R)-3-((S)-3-(2-(dimethylamino)ethyl)-6-(methoxycarbonyl)-7-methyl-6,7,8,9-tetrahydro-3H-imidazo[4,5-f]quinolin-2-yl)-2-phenylpropanoic Acid] | 1 to 1000
10 | COC(=O)N1c2ccc3c(nc(C[C@H](C(=O)O)c4ccccc4)n3CCN(C)C)c2CC[C@@H]1C [Example 138, (S)-3-((S)-3-(2-(dimethylamino)ethyl)-6-(methoxycarbonyl)-7-methyl-6,7,8,9-tetrahydro-3H-imidazo[4,5-f]quinolin-2-yl)-2-phenylpropanoic Acid] | 1 to 1000
11 | COC(=O)N1c2ccc3c(nc(CCn4cccn4)n3CCN3CCOCC3)c2CC[C@@H]1C [Example 226] | 1 to 1000
12 | COC(=O)N1c2ccc3c(nc(CCn4cccn4)n3CCN3CCN(C)CC3)c2CC[C@@H]1C [Example 227] | 1 to 1000
13 | COC(=O)N1c2ccc3c(nc(CCn4cccn4)n3CCN3CC4(COC4)C3)c2CC[C@@H]1C [Example 228] | 1 to 1000
14 | COC(=O)N1c2ccc3c(nc(CCn4ccccc4=O)n3CCN3CCNCC3)c2CC[C@@H]1C [Example 229] | 1 to 1000
15 | COC(=O)N1c2ccc3c(nc(CCn4ccccc4=O)n3CCN3CCN(C)CC3)c2CC[C@@H]1C [Example 230] | 1 to 1000
16 | COC(=O)N1c2ccc3c(nc(CCc4ccccc4)n3CCN(C)C)c2CC[C@@H]1C [Example 242, methyl-(7S)-3-[2-(dimethylamino)ethyl]-7-methyl-2-(2-phenylethyl)-3H,6H,7H,8H,9H-imidazo[4,5-f]quinoline-6-carboxylate] | 1 to 1000
17 | COC(=O)N1c2ccc3c(nc(CCc4ccccc4)n3CCN3CCOCC3)c2CC[C@@H]1C [Example 245] | 1 to 1000
18 | COC(=O)N1c2ccc3c(nc(C)n3CCN3CCOCC3)c2CC[C@@H]1C [Example 248] | 1 to 1000
19 | COC(=O)N1c2ccc3c(nc(C(C)(C)C)n3CCN3CCOCC3)c2CC[C@@H]1C [Example 249] | 1 to 1000
20 | COC(=O)N1c2ccc3c(nc(-c4ccccc4)n3CCN3CCOCC3)c2CC[C@@H]1C [Example 250] | 1 to 1000
21 | COC(=O)N1c2ccc3c(nc(CCC4CC4)n3CCN3CCOCC3)c2CC[C@@H]1C [Example 251] | 1 to 1000
22 | COC(=O)N1c2ccc3c(nc(Cc4ccccc4)n3CC3CCS(=O)(=O)CC3)c2CC[C@@H]1C [Example 253] | 1 to 1000
23 | COC(=O)N1c2ccc3c(nc(Cc4ccccc4)n3C3CCS(=O)(=O)CC3)c2CC[C@@H]1C [Example 254] | 1 to 1000
24 | COC(=O)N1c2ccc3c(nc(Cc4ccccc4)n3[C@H]3CC[C@H](C#N)CC3)c2CC[C@@H]1C [Example 255] | 1 to 1000
25 | COC(=O)N1c2ccc3c(nc(Cc4ccccc4)n3[C@H]3CC[C@@H](C#N)CC3)c2CC[C@@H]1C [Example 256] | 1 to 1000

Row | SMILES | IC50 [µM]
26 | COC(=O)N1c2ccc3c(nc(Cc4ccccc4)n3C3CCN(C)CC3)c2CC[C@@H]1C [Example 257] | 1 to 1000
27 | COC(=O)N1c2ccc3c(nc(Cn4ccccc4=O)n3C3CCOCC3)c2CC[C@@H]1C [Example 259] | 1 to 1000
28 | COC(=O)N1c2ccc3c(nc(Cn4ccccc4=O)n3[C@H]3CCCOC3)c2CC[C@@H]1C [Example 260] | 1 to 1000
29 | COC(=O)N1c2ccc3c(nc(CCn4ccccc4=O)n3CCCS(C)(=O)=O)c2CC[C@@H]1C [Example 261] | 1 to 1000
30 | COC(=O)N1c2ccc3c(nc(CCn4cccn4)n3C3CCS(=O)(=O)CC3)c2CC[C@@H]1C [Example 262] | 1 to 1000
31 | COC(=O)N1c2ccc3c(nc(Cc4ccccc4)n3C3CCCCC3)c2CC[C@@H]1C [Example 263] | 1 to 1000
32 | COC(=O)N1c2ccc3c(nc(Cc4ccccc4)n3[C@H]3CCCS(=O)(=O)C3)c2CC[C@@H]1C [Example 264, methyl (S)-2-benzyl-3-((S)-1,1-dioxidotetrahydro-2H-thiopyran-3-yl)-7-methyl-3,7,8,9-tetrahydro-6H-imidazo[4,5-f]quinoline-6-carboxylate] | 1 to 1000
33 | COC(=O)N1c2ccc3c(nc(Cc4ccccc4)n3[C@@H]3CCCS(=O)(=O)C3)c2CC[C@@H]1C [Example 265, methyl (S)-2-benzyl-3-((R)-1,1-dioxidotetrahydro-2H-thiopyran-3-yl)-7-methyl-3,7,8,9-tetrahydro-6H-imidazo[4,5-f]quinoline-6-carboxylate] | 1 to 1000
34 | COC(=O)N1c2ccc3c(nc(CCn4cccn4)n3CCCS(C)(=O)=O)c2CC[C@@H]1C [Example 270] | 1 to 1000
35 | COC(=O)N1c2ccc3c(nc(CCn4cccn4)n3CCS(C)(=O)=O)c2CC[C@@H]1C [Example 271] | 1 to 1000
36 | COC(=O)N1c2ccc3c(nc(CCn4ccccc4=O)n3CCN3CCOCC3)c2CC[C@@H]1C [Example 272] | 1 to 1000
37 | COC(=O)N1c2ccc3c(nc(CCn4ccccc4=O)n3CCS(C)(=O)=O)c2CC[C@@H]1C [Example 273] | 1 to 1000
38 | COC(=O)N1c2ccc3c(nc(CCn4nccn4)n3C3CCS(=O)(=O)CC3)c2CC[C@@H]1C [Example 275] | 1 to 1000
39 | COC(=O)N1c2ccc3c(nc(Cc4ccccc4)n3C3CCN(c4nnn[nH]4)CC3)c2CC[C@@H]1C [Example 278] | 1 to 1000
40 | COC(=O)N1c2ccc3c(nc(Cc4ccccc4)n3[C@@H]3CCC[C@H](c4nnn[nH]4)C3)c2CC[C@@H]1C [Example 279, methyl (S)-3-((1R,3S)-3-(1H-tetrazol-5-yl)cyclohexyl)-2-benzyl-7-methyl-3,7,8,9-tetrahydro-6H-imidazo[4,5-f]quinoline-6-carboxylate] | 1 to 1000
41 | COC(=O)N1c2ccc3c(nc(Cc4ccccc4)n3[C@H]3CCC[C@@H](c4nnn[nH]4)C3)c2CC[C@@H]1C [Example 280, methyl (S)-3-((1S,3R)-3-(1H-tetrazol-5-yl)cyclohexyl)-2-benzyl-7-methyl-3,7,8,9-tetrahydro-6H-imidazo[4,5-f]quinoline-6-carboxylate] | 1 to 1000
42 | COC(=O)N1c2ccc3c(nc(Cc4ccccc4)n3[C@@H]3CCC[C@@H](c4nnn[nH]4)C3)c2CC[C@@H]1C [Example 281, methyl (S)-3-((1R,3R)-3-(1H-tetrazol-5-yl)cyclohexyl)-2-benzyl-7-methyl-3,7,8,9-tetrahydro-6H-imidazo[4,5-f]quinoline-6-carboxylate] | 1 to 1000
43 | COC(=O)N1c2ccc3c(nc(Cc4ccccc4)n3[C@H]3CCC[C@H](c4nnn[nH]4)C3)c2CC[C@@H]1C [Example 282, methyl (S)-3-((1S,3S)-3-(1H-tetrazol-5-yl)cyclohexyl)-2-benzyl-7-methyl-3,7,8,9-tetrahydro-6H-imidazo[4,5-f]quinoline-6-carboxylate] | 1 to 1000
44 | COC(=O)N1c2ccc3c(nc(Cc4ccccc4)n3[C@H]3CC[C@H](c4nnn[nH]4)CC3)c2CC[C@@H]1C [Example 283] | 1 to 1000
45 | COC(=O)N1c2ccc3c(nc(Cc4ccccc4)n3[C@H]3CC[C@@H](c4nnn[nH]4)CC3)c2CC[C@@H]1C [Example 284] | 1 to 1000
46 | COC(=O)N1c2ccc3c(nc(Cc4ccccc4)n3CC(=O)O)c2CC[C@@H]1C [Example 285, (S)-2-(2-benzyl-6-(methoxycarbonyl)-7-methyl-6,7,8,9-tetrahydro-3H-imidazo[4,5-f]quinolin-3-yl)acetic Acid] | 1 to 1000
47 | COC(=O)N1c2ccc3c(nc(Cc4ccccc4)n3CC(N)=O)c2CC[C@@H]1C [Example 286, methyl (S)-3-(2-amino-2-oxoethyl)-2-benzyl-7-methyl-3,7,8,9-tetrahydro-6H-imidazo[4,5-f]quinoline-6-carboxylate] | 1 to 1000
48 | COC(=O)N1c2ccc3c(nc(Cc4ccccc4)n3CCO)c2CC[C@@H]1C [Example 287, methyl (S)-2-benzyl-3-(2-hydroxyethyl)-7-methyl-3,7,8,9-tetrahydro-6H-imidazo[4,5-f]quinoline-6-carboxylate] | 1 to 1000
49 | COC(=O)N1c2ccc3c(nc(CCn4cccn4)n3CCNCc3cnco3)c2CC[C@@H]1C [Example 292] | 1 to 1000
50 | COC(=O)N1c2ccc3c(nc(CCn4cccn4)n3CCNCc3cnn(C)c3)c2CC[C@@H]1C [Example 293] | 1 to 1000

From patent US11292791B2 (priority 2017, dated 2022)
